Measured values taken from ChEMBL document CHEMBL1201862, “PubChem BioAssay data set” (2004).
Active and inactive are the calls of the source.

Key:
[1] = test system: Streptococcus sp. 'group A'; test: growth inhibition of control SK(-) GAS strain, dose response, counter-screen for streptokinase expression inhibitor project, luminescence, kanamycin, BacTiterGlo, confirmation (AID 1900); assay type: functional, organism-based
Streptokinase A = target: T1, Streptokinase A (Streptococcus pyogenes serotype M1, UniProt P10520); test: S. pyogenes streptokinase expression inhibitors, potency, dose response, plasminogen activation absorbance, OD405 (AID 1914); assay type: functional, Streptococcus pyogenes M1 GAS;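 further: secreted streptokinase activity via plasminogen activation per viability signal from cell pellet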
T1 sequence (P10520 whole entry): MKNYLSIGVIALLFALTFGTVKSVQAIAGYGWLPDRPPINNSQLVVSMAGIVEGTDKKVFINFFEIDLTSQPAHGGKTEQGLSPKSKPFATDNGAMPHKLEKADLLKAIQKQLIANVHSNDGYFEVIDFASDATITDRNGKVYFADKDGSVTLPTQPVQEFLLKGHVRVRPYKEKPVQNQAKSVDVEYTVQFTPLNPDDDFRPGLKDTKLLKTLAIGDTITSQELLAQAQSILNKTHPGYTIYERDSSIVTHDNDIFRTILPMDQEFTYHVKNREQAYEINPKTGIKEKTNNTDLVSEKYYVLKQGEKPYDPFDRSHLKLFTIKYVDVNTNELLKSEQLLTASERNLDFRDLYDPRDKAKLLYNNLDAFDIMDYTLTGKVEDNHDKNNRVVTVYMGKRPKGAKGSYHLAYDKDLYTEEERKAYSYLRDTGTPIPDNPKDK

Streptococcus = test: Group A Streptococcus viability loss, dose response, counter-screen for streptokinase expression inhibitor project, luminescence, BacTiterGlo (AID 1915); assay type: functional, organism-based;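 further: potency for reduction of bacterial viability or growth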
[2] = cytotoxicity toward NIH3T3 fibroblasts, dose response, counter-screen, cell-based, ATP luminescence, mouse fibroblasts (AID 2010); assay type: functional;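 further: cells exposed to compound for about 90 hours before reading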
[3] = inhibitors of intracellular T. cruzi replication, confirmation, NIH3T3 host cells, beta-gal luminescence (AID 2044); assay type: functional, cell-based;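 further: intracellular parasites grown in NIH/3T3 mouse fibroblasts as host cells; luminescent beta-galactosidase reporter signal from transgenic T. cruzi replicating inside host cells; inhibitors lower the luminescence signal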
INS1 = test: beta cell apoptosis inhibitors, cytokine rescue, dose response, luminescence, retest (AID 449756); assay type: functional, cell-based; conditions: Rattus norvegicus;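 further: cell death triggered by IL-1 beta plus TNF-alpha plus IFN-gamma mixture; protective hits raise ATP signal compared with cytokine alone wells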
[4] = target: Luciferin 4-monooxygenase (Photinus pyralis, UniProt P08659); test: firefly luciferase enzyme inhibitors, dose response, biochemical, luminescence (AID 1891)
Sequence of Luciferin 4-monooxygenase (P08659 whole entry): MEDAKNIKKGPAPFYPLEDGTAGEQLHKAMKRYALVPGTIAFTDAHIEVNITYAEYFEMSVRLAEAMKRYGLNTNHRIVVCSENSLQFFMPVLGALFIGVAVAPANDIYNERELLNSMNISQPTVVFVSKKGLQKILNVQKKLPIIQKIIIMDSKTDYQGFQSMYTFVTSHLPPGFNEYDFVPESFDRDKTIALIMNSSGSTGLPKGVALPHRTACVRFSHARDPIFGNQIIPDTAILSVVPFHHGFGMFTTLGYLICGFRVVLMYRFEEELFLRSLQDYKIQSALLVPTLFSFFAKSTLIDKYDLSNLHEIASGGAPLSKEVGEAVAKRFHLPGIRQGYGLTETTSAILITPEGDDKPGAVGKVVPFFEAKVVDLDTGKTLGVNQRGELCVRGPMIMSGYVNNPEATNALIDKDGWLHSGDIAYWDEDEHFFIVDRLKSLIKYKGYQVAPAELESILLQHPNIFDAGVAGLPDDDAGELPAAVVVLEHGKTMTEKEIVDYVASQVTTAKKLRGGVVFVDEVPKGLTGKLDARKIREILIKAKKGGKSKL

[5] = Luminescence Cell-Based Dose Confirmation HTS to Identify Inhibitors of Platelet Dense Granule Release. [Related pubchem assays: 1663 (Primary HTS), 1678 (Summary of Project)]; assay type: functional
[6] = target: T2, High affinity choline transporter 1 (Homo sapiens, UniProt Q9GZV3); test: CHT inhibitors, dose response, cell-based, 5-point CRC, membrane potential dye (AID 504840); assay type: functional
T2 sequence (Q9GZV3 whole entry): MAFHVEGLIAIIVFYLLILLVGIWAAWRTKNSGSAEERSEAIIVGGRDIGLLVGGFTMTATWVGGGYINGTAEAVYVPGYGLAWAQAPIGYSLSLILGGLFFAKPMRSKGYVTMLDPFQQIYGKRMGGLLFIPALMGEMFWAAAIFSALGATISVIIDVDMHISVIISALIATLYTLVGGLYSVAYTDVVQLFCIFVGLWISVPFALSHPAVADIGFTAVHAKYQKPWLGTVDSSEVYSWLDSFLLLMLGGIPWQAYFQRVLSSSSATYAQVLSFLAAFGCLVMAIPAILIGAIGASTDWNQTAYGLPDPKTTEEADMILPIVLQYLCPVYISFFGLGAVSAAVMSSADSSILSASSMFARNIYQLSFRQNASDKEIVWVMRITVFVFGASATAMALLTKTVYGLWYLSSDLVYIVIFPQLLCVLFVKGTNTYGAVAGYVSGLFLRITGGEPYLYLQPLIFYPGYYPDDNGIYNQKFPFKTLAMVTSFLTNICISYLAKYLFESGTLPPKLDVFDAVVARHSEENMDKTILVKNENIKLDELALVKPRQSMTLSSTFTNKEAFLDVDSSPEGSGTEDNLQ

[7] = Luminescence Cell-Based Dose Retest to Confirm Inhibitors of Cancer Stem Cells. [Related pubchem assays (depositor defined):AID2717, AID2721]; assay type: functional; conditions: Homo sapiens
Cytochrome P450 2C19 = Cytochrome P450 2C19 (Homo sapiens, UniProt P33261); test: Cytochrome panel assay with activity outcomes. Panel member name: p450-cyp2c19 Compounds with AC50 equal or less than 10 uM are considered active; assay type: functional; conditions: read-out: AC50
Sequence of Cytochrome P450 2C19 (P33261 whole entry): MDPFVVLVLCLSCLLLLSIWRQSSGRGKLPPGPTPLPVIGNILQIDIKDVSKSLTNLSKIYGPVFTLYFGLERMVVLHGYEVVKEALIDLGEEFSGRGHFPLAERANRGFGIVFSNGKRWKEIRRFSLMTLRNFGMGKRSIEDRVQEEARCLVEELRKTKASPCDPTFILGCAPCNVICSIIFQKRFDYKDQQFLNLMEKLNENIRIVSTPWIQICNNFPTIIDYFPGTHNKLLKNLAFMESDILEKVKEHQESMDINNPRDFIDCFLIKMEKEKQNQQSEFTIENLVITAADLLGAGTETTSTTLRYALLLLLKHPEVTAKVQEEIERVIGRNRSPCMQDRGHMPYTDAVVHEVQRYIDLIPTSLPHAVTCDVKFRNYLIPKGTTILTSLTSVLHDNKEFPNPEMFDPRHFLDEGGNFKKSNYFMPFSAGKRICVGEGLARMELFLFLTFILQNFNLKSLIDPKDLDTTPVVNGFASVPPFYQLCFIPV

Cytochrome P450 1A2 = target: T3, Cytochrome P450 1A2 (Homo sapiens, UniProt P05177);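 further: PubChem cytochrome P450 panel assay, CYP1A2 panel member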
T3 sequence (P05177 whole entry): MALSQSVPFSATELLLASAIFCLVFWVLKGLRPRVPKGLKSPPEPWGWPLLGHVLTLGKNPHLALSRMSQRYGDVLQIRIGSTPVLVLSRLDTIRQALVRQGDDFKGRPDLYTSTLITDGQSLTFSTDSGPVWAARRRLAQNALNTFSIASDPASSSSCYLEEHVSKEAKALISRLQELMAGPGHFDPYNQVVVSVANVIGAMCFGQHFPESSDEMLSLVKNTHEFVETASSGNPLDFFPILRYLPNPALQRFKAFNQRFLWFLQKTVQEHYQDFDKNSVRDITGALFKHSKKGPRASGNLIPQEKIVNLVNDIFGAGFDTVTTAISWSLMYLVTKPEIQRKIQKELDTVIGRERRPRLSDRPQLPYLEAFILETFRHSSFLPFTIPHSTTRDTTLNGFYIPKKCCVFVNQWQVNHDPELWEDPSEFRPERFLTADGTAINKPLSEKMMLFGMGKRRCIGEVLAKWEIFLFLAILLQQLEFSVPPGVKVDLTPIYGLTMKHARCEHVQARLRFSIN

Cytochrome P450 3A4 = Cytochrome P450 3A4 (Homo sapiens, UniProt P08684);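 further: CYP3A4 tested as one member of a cytochrome P450 panel screen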
Sequence of Cytochrome P450 3A4 (P08684 whole entry): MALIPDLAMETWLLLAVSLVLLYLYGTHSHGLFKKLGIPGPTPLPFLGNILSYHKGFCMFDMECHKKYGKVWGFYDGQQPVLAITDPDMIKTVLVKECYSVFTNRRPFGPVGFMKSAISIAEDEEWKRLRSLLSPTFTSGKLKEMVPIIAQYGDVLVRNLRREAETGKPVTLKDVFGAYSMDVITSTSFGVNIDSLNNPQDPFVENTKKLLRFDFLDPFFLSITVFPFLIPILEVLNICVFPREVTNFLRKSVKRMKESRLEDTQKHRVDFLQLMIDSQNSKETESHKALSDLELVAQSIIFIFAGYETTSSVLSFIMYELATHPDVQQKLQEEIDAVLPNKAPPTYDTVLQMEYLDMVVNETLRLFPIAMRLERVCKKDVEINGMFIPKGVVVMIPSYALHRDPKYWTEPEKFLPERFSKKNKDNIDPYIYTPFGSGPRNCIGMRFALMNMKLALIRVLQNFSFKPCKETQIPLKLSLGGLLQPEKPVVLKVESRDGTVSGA

Cytochrome P450 2D6 = Cytochrome P450 2D6 (Homo sapiens, UniProt P10635);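 further: CYP2D6 member of a cytochrome P450 panel assay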
Sequence of Cytochrome P450 2D6 (P10635 whole entry): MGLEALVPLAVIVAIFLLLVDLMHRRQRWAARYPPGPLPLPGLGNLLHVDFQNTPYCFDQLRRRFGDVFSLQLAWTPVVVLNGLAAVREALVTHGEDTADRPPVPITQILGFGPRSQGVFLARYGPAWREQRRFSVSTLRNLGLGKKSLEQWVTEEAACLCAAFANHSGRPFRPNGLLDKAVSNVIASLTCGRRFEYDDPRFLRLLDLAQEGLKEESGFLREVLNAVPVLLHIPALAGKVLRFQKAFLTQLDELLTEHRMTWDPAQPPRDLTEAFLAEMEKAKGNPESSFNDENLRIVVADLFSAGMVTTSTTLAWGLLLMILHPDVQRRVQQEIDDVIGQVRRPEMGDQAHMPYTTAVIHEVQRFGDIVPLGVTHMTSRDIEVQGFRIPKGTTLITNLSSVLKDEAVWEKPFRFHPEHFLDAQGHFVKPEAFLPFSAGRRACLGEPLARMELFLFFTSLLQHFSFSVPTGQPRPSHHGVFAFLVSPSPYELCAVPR

[8] = target: T4, Heat shock factor protein 1 (Mus musculus, UniProt P38532); test: HSF1 potentiators in luciferase reporter cells, confirmation, cell-based, NIH3T3, luminescence, dose retest (AID 435004); assay type: functional;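 further: stress induced by proteasome inhibitor MG132 added 30 min after compound; luciferase reporter driven by HSF1 response element in NIH3T3 cells; actives raise luminescence as potentiators of the MG132 stress response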
T4 sequence (P38532 whole entry): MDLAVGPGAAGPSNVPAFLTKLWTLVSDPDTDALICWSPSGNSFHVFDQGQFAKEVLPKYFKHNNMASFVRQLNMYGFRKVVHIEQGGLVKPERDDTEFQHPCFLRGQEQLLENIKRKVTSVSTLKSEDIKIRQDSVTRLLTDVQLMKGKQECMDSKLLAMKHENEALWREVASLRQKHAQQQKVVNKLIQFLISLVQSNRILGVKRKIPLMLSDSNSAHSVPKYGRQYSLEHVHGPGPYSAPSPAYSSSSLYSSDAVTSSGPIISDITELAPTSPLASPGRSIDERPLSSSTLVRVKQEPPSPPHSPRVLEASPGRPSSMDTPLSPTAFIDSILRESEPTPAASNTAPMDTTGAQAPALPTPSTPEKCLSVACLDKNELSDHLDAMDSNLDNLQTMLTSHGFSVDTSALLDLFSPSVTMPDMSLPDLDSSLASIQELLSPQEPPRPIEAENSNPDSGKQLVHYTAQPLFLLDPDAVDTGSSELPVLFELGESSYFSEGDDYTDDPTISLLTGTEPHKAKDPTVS

## CC1(C)CC(=O)C2=C(C1)N=C1c3ccccc3C(=O)C1C2c1ccc(Cl)cc1 (stereo not given)
[1]
  EC50: 6.07 µM (active)
Streptokinase A
  EC50: 14.8 µM (active)
Streptococcus
  EC50: > 150 µM (not active)

## C=CCn1cc(/C=C/c2cc[n+](C)cc2)c2ccccc21
[2]
  EC50: > 60 µM (not active)
[3]
  EC50: 323 nM (active)
INS1
  AC50: 4.75 µM (active)

## CC(Oc1cccc(Cl)c1)C(=O)Nc1ccccc1N1CCCC1 (stereo not given)
[4]
  EC50: > 112 µM (not active)
[5]
  EC50: > 112 µM (not active)

## CNc1oc(Cc2cccc3ccccc23)nc1C#N
[6]
  IC50: 12.6 µM (active)

## Cc1noc(C)c1S(=O)(=O)N(CCc1ccccc1)Cc1ccccc1
[1]
  EC50: 68.6 µM (active)
Streptokinase A
  EC50: 21.7 µM (active)
Streptococcus
  EC50: > 150 µM (not active)

## COc1ccc(NC(=O)c2cccc(OC(F)F)c2)cc1Cl
[4]
  EC50: 17.3 µM (active)
[5]
  EC50: 18.2 µM (active)

## CC(C)OCCCN1CN(S(=O)(=O)c2cccs2)c2nc3ccccc3nc21
[4]
  EC50: > 112 µM (not active)
[5]
  EC50: > 112 µM (not active)

## CCCNc1nc2c(c(=O)n(C)c(=O)n2C)n1CCC(C)C
[6]
  IC50: 6.03 µM (active)

## CCCCCCSc1ccc([C@H]2N[C@@](C)(C(=O)OC)[C@H]3C(=O)N(CC)C(=O)[C@@H]23)cc1
[7]
  AC50: 33.7 µM (active)

## CCCc1cc2c(-c3ccccc3)cc(=O)oc2cc1OCc1ccc(C(=O)O)o1
[1]
  EC50: 8.37 µM (active)
Streptokinase A
  EC50: 13.8 µM (active)
Streptococcus
  EC50: > 150 µM (not active)

## CN(C)c1nc(OCCNC(=O)Nc2ccc(Cl)cc2)nc(N(C)C)n1
[4]
  EC50: 21.3 µM (active)
[5]
  EC50: > 112 µM (not active)

## C[C@@H]1CC[C@H]2C(=O)N3[C@@H](CC[C@@H](C)[C@@H]3c3ccc(Br)cc3)C(=O)N2[C@H]1c1ccc(Br)cc1
[7]
  AC50: 3.04 µM (active)

## Cc1nnc(SCC(=O)Nc2ccc(Br)cn2)nc1O
[4]
  EC50: > 112 µM (not active)
[5]
  EC50: > 112 µM (not active)

## CC(Oc1ccccc1Cl)C(=O)Nc1ccc(S(=O)(=O)Nc2nccs2)cc1 (stereo not given)
[6]
  IC50: 5.01 µM (active)

## COC(=O)C1(Cc2ccccc2)C=C2C(=C(C)C(=O)C2C)CN1 (stereo not given)
Cytochrome P450 2C19
  AC50: 39.8 µM (inconclusive)
Cytochrome P450 1A2
  AC50: 10 µM (inconclusive)
Cytochrome P450 3A4
  AC50: 15.8 µM (inconclusive)
Cytochrome P450 2D6
  AC50: 15.8 µM (inconclusive)

## Cc1ccccc1SCC(=O)OCC(=O)N(C)c1c(N)n(Cc2ccccc2)c(=O)[nH]c1=O
[4]
  EC50: > 112 µM (not active)
[5]
  EC50: > 112 µM (not active)

## O=C1/C(=C/c2ccncc2)Oc2cc(OS(=O)(=O)c3ccccc3)ccc21
[7]
  AC50: 3.32 µM (active)

## Cc1ccc(-c2[nH]c3ccccc3c2C(C[N+](=O)[O-])c2ccco2)cc1 (stereo not given)
[4]
  EC50: > 112 µM (not active)
[8]
  EC50: > 260 µM (inactive)
[5]
  EC50: > 112 µM (not active)

## Cc1ccc(Nc2cc(C)nn2-c2nc(C)cc(C)n2)cc1
[1]
  EC50: 6.89 µM (active)
Streptokinase A
  EC50: > 150 µM (not active)
Streptococcus
  EC50: 18.2 µM (active)
